Results taken from patent publication US20230159532A1, “PARATHYROID HORMONE (PTH) RECEPTOR ANTAGONISTS AND USES THEREOF” (Crinetics Pharmaceuticals, Inc., priority 2021, published 2023).

Biological target: T1, human PTHR1 receptor (Homo sapiens, UniProt Q03431)
T1 construct: purchased Eurofins HTS030M
T1 sequence (Q03431 27-593): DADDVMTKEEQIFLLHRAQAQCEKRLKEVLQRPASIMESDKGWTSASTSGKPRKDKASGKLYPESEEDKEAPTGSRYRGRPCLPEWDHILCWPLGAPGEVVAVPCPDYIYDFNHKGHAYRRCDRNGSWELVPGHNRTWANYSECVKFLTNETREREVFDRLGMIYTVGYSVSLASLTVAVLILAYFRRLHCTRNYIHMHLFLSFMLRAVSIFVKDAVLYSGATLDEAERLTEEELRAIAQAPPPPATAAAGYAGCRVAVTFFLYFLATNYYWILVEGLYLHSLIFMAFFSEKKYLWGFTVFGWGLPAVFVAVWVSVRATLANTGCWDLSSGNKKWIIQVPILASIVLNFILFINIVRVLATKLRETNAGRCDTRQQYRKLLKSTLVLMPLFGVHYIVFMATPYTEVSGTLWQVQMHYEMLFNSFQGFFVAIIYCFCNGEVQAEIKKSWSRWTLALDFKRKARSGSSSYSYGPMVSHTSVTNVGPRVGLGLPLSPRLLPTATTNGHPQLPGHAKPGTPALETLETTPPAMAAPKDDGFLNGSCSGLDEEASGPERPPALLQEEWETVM
Test: Competitive antagonist binding assay for hPTH-R1 (radioactive competition binding, SPA beads)
Details: human PTHR1 membranes, [125I]-[Nle8,18,Tyr34]-PTH(1-34) 0.2 nM, 90 minutes at room temperature; read-out: hPTHR1 Ki
In short: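 Human PTHR1 membranes on SPA beads incubated 90 min at room temperature with compound (typically 0-10,000 nM final) and 0.2 nM [125I]-[Nle8,18,Tyr34]-PTH(1-34) in HEPES buffer with MgCl2, CaCl2, BSA, Triton X-100 and protease inhibitors, pH 7.4. Scintillation signal read; Ki values derived.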

Compound | Ki [nM]
CCN1C(=O)N(c2c(F)cc(NCCNC)cc2F)c2cc(Cl)ccc2-c2cc(F)cnc21 [1-14, 13-chloro-10-(2,6-difluoro-4-{[2-(methylamino)ethyl]amino}phenyl)-8-ethyl-4-fluoro-6,8,10-triazatricyclo[9.4.0.0^2,7]pentadeca-1(11),2(7),3,5,12,14-hexaen-9-one] | < 100
CCN1C(=O)N(c2c(F)cc(NCCNCCCC(=O)O)cc2F)c2cc(C#N)cc(C)c2-c2cc(F)cnc21 [1-68, 4-({2-[(4-{13-cyano-8-ethyl-4-fluoro-15-methyl-9-oxo-6,8,10-triazatricyclo[9.4.0.0^2,7]pentadeca-1(11),2(7),3,5,12,14-hexaen-10-yl}-3,5-difluorophenyl)amino]ethyl}amino)butanoic acid] | < 100
CCN1C(=O)N(c2c(F)cc(NCCNC)cc2F)c2cc(C#N)ccc2-c2cc(Cl)cnc21 [1-54, 4-chloro-10-(2,6-difluoro-4-{[2-(methylamino)ethyl]amino}phenyl)-8-ethyl-9-oxo-6,8,10-triazatricyclo[9.4.0.0^2,7]pentadeca-1(11),2(7),3,5,12,14-hexaene-13-carbonitrile] | < 100
CCN1C(=O)N(c2c(F)cc(N3CC[C@H](N)C3)cc2F)c2cc(Cl)ccc2-c2cc(Cl)cnc21 [1-43, 10-{4-[(3S)-3-aminopyrrolidin-1-yl]-2,6-difluorophenyl}-4,13-dichloro-8-ethyl-6,8,10-triazatricyclo[9.4.0.0^2,7]pentadeca-1(11),2(7),3,5,12,14-hexaen-9-one] | < 100
CCN1C(=O)N(c2c(F)cc(NCCN[C@H](C)CO)cc2F)c2cc(C#N)ccc2-c2cc(Cl)cnc21 [1-173, 4-chloro-10-{2,6-difluoro-4-[(2-{[(2R)-1-hydroxypropan-2-yl]amino}ethyl)amino]phenyl}-8-ethyl-9-oxo-6,8,10-triazatricyclo[9.4.0.0^2,7]pentadeca-1(11),2(7),3,5,12,14-hexaene-13-carbonitrile] | < 100
CCN1C(=O)N(c2c(F)cc(NCCNCCO)cc2F)c2cc(C)ccc2-c2cc(F)cnc21 [1-226, 10-[2,6-difluoro-4-({2-[(2-hydroxyethyl)amino]ethyl}amino)phenyl]-8-ethyl-4-fluoro-13-methyl-6,8,10-triazatricyclo[9.4.0.0^2,7]pentadeca-1(11),2(7),3,5,12,14-hexaen-9-one] | < 100
CCN1C(=O)N(c2c(F)cc(NCCNCCO)cc2F)c2cc(C#N)ccc2-c2cc(F)cnc21 [1-82, 10-[2,6-difluoro-4-({2-[(2-hydroxyethyl)amino]ethyl}amino)phenyl]-8-ethyl-4-fluoro-9-oxo-6,8,10-triazatricyclo[9.4.0.0^2,7]pentadeca-1(11),2(7),3,5,12,14-hexaene-13-carbonitrile] | < 100
CCN1C(=O)N(c2c(F)cc(NCCNCC(O)CO)cc2F)c2cc(C#N)ccc2-c2cc(Cl)cnc21 (stereo not shown) [1-156, 4-chloro-10-[4-({2-[(2,3-dihydroxypropyl)amino]ethyl}amino)-2,6-difluorophenyl]-8-ethyl-9-oxo-6,8,10-triazatricyclo[9.4.0.0^2,7]pentadeca-1(11),2(7),3,5,12,14-hexaene-13-carbonitrile] | < 100
CCN1C(=O)N(c2c(F)cc(NCCNCCNC(N)=O)cc2F)c2cc(C#N)ccc2-c2cc(Cl)cnc21 [1-140, [2-({2-[(4-{4-chloro-13-cyano-8-ethyl-9-oxo-6,8,10-triazatricyclo[9.4.0.0^2,7]pentadeca-1(11),2(7),3,5,12,14-hexaen-10-yl}-3,5-difluorophenyl)amino]ethyl}amino)ethyl]urea] | < 100
Cc1cc(Cl)cc2c1-c1cc(F)cnc1N(C(C)C)C(=O)N2c1c(F)cc(NCCNCCCC(=O)O)cc1F [1-80, 4-{[2-({4-[13-chloro-4-fluoro-15-methyl-9-oxo-8-(propan-2-yl)-6,8,10-triazatricyclo[9.4.0.0^2,7]pentadeca-1(11),2(7),3,5,12,14-hexaen-10-yl]-3,5-difluorophenyl}amino)ethyl]amino}butanoic acid] | < 100
CCN1C(=O)N(c2c(F)cc(N3CC(NCCO)C3)cc2F)c2cc(C#N)ccc2-c2cc(F)cnc21 [1-124, 10-(2,6-difluoro-4-{3-[(2-hydroxyethyl)amino]azetidin-1-yl}phenyl)-8-ethyl-4-fluoro-9-oxo-6,8,10-triazatricyclo[9.4.0.0^2,7]pentadeca-1(11),2(7),3,5,12,14-hexaene-13-carbonitrile] | 100 to 1000
CCN1C(=O)N(c2c(F)cc(NCCNCC(=O)O)cc2F)c2cc(C#N)ccc2-c2cc(C(F)(F)F)cnc21 [1-227, 2-{[2-({4-[13-cyano-8-ethyl-9-oxo-4-(trifluoromethyl)-6,8,10-triazatricyclo[9.4.0.0^2,7]pentadeca-1(11),2(7),3,5,12,14-hexaen-10-yl]-3,5-difluorophenyl}amino)ethyl]amino}acetic acid] | < 100
CCN1C(=O)N(c2c(F)cc(NCCNCC(N)CO)cc2F)c2cc(C#N)ccc2-c2cc(Cl)cnc21 (stereo not shown) [1-225, 10-[4-({2-[(2-amino-3-hydroxypropyl)amino]ethyl}amino)-2,6-difluorophenyl]-4-chloro-8-ethyl-9-oxo-6,8,10-triazatricyclo[9.4.0.0^2,7]pentadeca-1(11),2(7),3,5,12,14-hexaene-13-carbonitrile] | < 100
CCN1C(=O)N(c2c(F)cc(NCCNCCCO)cc2F)c2cc(C#N)ccc2-c2cc(Cl)cnc21 [1-190, 4-chloro-10-[2,6-difluoro-4-({2-[(3-hydroxypropyl)amino]ethyl}amino)phenyl]-8-ethyl-9-oxo-6,8,10-triazatricyclo[9.4.0.0^2,7]pentadeca-1(11),2(7),3,5,12,14-hexaene-13-carbonitrile] | < 100

Next, values leading:

Ki [nM] | Compound
< 100 | CCN1C(=O)N(c2c(F)cc(NCCNCCO)cc2F)c2cc(Cl)cnc2-c2cc(F)cnc21 [3-25, 5-chloro-8-[2,6-difluoro-4-({2-[(2-hydroxyethyl)amino]ethyl}amino)phenyl]-10-ethyl-14-fluoro-3,8,10,12-tetraazatricyclo[9.4.0.0^2,7]pentadeca-1(11),2(7),3,5,12,14-hexaen-9-one]
< 100 | CCN1C(=O)N(c2c(F)cc(NCCNC[C@@H](O)c3ccccc3)cc2F)c2cc(C#N)ccc2-c2cc(Cl)cnc21 [1-239, 4-chloro-10-{2,6-difluoro-4-[(2-{[(2S)-2-hydroxy-2-phenylethyl]amino}ethyl)amino]phenyl}-8-ethyl-9-oxo-6,8,10-triazatricyclo[9.4.0.0^2,7]pentadeca-1(11),2(7),3,5,12,14-hexaene-13-carbonitrile]
< 100 | 4-chloro-10-(2,6-difluoro-4-{[2-(methylamino)ethyl]amino}phenyl)-8-methyl-9-oxo-6,8,10-triazatricyclo[9.4.0.0^2,7]pentadeca-1(11),2(7),3,5,12,14-hexaene-13-carbonitrile [1-211]
< 100 | CCN1C(=O)N(c2c(F)cc(NCCN[C@@H](CCSC)C(=O)O)cc2F)c2cc(C#N)ccc2-c2cc(Cl)cnc21 [1-233, (2S)-2-({2-[(4-{4-chloro-13-cyano-8-ethyl-9-oxo-6,8,10-triazatricyclo[9.4.0.0^2,7]pentadeca-1(11),2(7),3,5,12,14-hexaen-10-yl}-3,5-difluorophenyl)amino]ethyl}amino)-4-(methylsulfanyl)butanoic acid]
< 100 | CCN1C(=O)N(c2c(F)cc(NCCN[C@H]3C[C@@H](O)C3)cc2F)c2cc(C#N)ccc2-c2cc(F)cnc21 [1-232, 10-{2,6-difluoro-4-[(2-{[(1s,3s)-3-hydroxycyclobutyl]amino}ethyl)amino]phenyl}-8-ethyl-4-fluoro-9-oxo-6,8,10-triazatricyclo[9.4.0.0^2,7]pentadeca-1(11),2(7),3,5,12,14-hexaene-13-carbonitrile]
< 100 | CCN1C(=O)N(c2c(F)cc(NCCNCCO)cc2F)c2cc(C#N)ccc2-c2cc(F)ccc21 [3-18, 8-[2,6-difluoro-4-({2-[(2-hydroxyethyl)amino]ethyl}amino)phenyl]-10-ethyl-14-fluoro-9-oxo-8,10-diazatricyclo[9.4.0.0^2,7]pentadeca-1(11),2(7),3,5,12,14-hexaene-5-carbonitrile]
< 100 | CCN1C(=O)N(c2c(F)cc(NCCNCCCC(=O)O)cc2F)c2c(ccc(Cl)c2F)-c2cc(Cl)cnc21 [3-11, 4-({2-[(4-{4,13-dichloro-8-ethyl-12-fluoro-9-oxo-6,8,10-triazatricyclo[9.4.0.0^2,7]pentadeca-1(11),2(7),3,5,12,14-hexaen-10-yl}-3,5-difluorophenyl)amino]ethyl}amino)butanoic acid]
100 to 1000 | CNCCNc1ccc(N2C(=O)N(C)c3ncccc3-c3ccc(Cl)cc32)c(F)c1 [2-2, 13-chloro-10-(2-fluoro-4-{[2-(methylamino)ethyl]amino}phenyl)-8-methyl-6,8,10-triazatricyclo[9.4.0.0^2,7]pentadeca-1(11),2(7),3,5,12,14-hexaen-9-one]
